Source: US5446157A, “Boron difluoride compounds useful in photodynamic therapy and production of laser light” (priority 1993, dated 1995)
Read-outs that look alike come from different tables or passages of the source. Values belong to the compound of their own block, whether it stands above or below them.

Key:
[1] = Fluorescence (λf, quantum yield); format: physicochemical; conditions: FIG. 2, in ethanol
Protocol: Instruments for spectroscopic measurements included: Perkin-Elmer 1600 FTIR, Varian Gernini 300 NMR, Hewlett-Packard 5985 (70 eV) GC-MS, Cary 17 (UV), and Perkin-Elmer LS-5B Luminescence spectrometer. A dye laser was constructed and operated in the non-flowing (static) mode and had no tuning capability. […] Laser energy outputs were measured with an accuracy of ±5% by a Scientech 365 power and energy meter.
Light absorption, luminescence, and laser activity properties for the dyes 7 are described in Table VI. Each recorded UV absorption was restricted to the highest wave length. Fluorescence quantum yields of the dyes were determined for ethanol solutions with excitation at 450 and 460 nm by reference to acridine orange, .PHI.0.46, in ethanol; for the dye 7p the reference was R-6G, <P 0.90. Melting points were obtained from a Mel-Temp II device and were uncorrected. The solvent for ^1 H NMR spectra was chloroform-d with tetramethylsilane as an internal standard. Elemental analyses were obtained from Midwest Micro Lab, Indianapolis, Ind. and Galbraith Laboratories, Inc., Knoxville, Tenn. Solvents were removed by rotary evaporation under reduced pressure unless indicated otherwise. Column chromatography was performed on silica gel. Molecular weights were confirmed by EI-MS for the pyrrole 4j 193 and for laser dyes 7d 346, 7e 374, 7g 374, 7i 342, 7j 314 and 7x 360. IR absorption data satisfactorily supported structure assignments for the laser dyes 7.
^[b] 2 × 10^-4 M in ethanol except where noted otherwise.

[2] = cited from earlier work
[3] = Laser characteristics of pyrromethene-BF2 complexes under flashlamp excitation (Table IV); conditions: for Life: DMA/MeOH
[4] = Solubility/fluorescence in various solvents (Tables I, II); format: physicochemical
Protocol: In addition, tests were conducted on the product in order to determine its solubility/fluorescence in various solvents. One property of the compositions described herein involves a variable degree of solubility/fluorescence relative to the solvents with which they are combined. Data showing a variety of different solvents combined with the product of Example I is presented below in Table I:
As in Example I, tests were conducted on the product in Example II in order to determine its fluorescence in various solvents. Data showing a variety of different solvents combined with the product of Example II is presented below in Table II: […]

[5] = Ref [2], cited from earlier work; for λmax: 5 × 10^-6 M in ethanol
[6] = Photostability under irradiation with 250 watt sun lamp; format: physicochemical
Protocol: In addition, experiments were conducted in order to determine the photostability of the product of Example I. A solution was prepared by mixing 0.1 g of the product with 50 ml of dichloromethane solvent. The solution was placed in a 100 ml round bottom flask and irradiated with light from a sun lamp (250 watts at a distance of approximately 8 inches from the flask). […] However, another solution was made by combining 0.1 g of product in 250 ml of CH3 OH and 10 ml of CH2 Cl2. Addition of the CH2 Cl2 was undertaken to obtain complete dissolution. The solution was placed in a […] and irradiated as described above. […] Thus, the use of different solvents will cause a variation in both the character and duration of fluorescence.
In addition, a further test was conducted in order to determine the photostability of the product. Specifically, 2.0 mg of the product in a 100 ml round bottom flask was dissolved in 50 ml of H2 O. The solution was then irradiated by light from a 250 watt sun lamp placed approximately 8 inches from the flask. UV spectral data was recorded periodically as shown below in Table III.

[7] = P-BF2 dyes dispersed in acrylic co-polymer (solid-state laser)
From the text: Any laser dye of the present invention may be substituted for the dye in any of the examples of that incorporated patent. The matrix generally includes solid polymeric host laser rods prepared using bulk polymerization of acrylic acid ester comonomers.

[8] = Photostability in methanol under flashlamp excitation pulses
[9] = 2 × 10^-4 M in ethanol, Ref [2]

- Life [3]: ~50 kJ/L
- Color of Fluorescence, Room light ([4]; (CF3)2 CHOH): green
- Color of Fluorescence, UV ([4]; (CF3)2 CHOH): green
- Color of Solution ([4]; (CF3)2 CHOH): yellow
- Solubility ([4]; (CF3)2 CHOH): soluble
- Color of Fluorescence, Room light ([4]; CClF2 --CFCl2): green
- Color of Fluorescence, UV ([4]; CClF2 --CFCl2): green
- Color of Solution ([4]; CClF2 --CFCl2): yellow
- Color of Solution ([4]; CF3 CH2 OH): green
- Solubility ([4]; CH2 Cl2): soluble
- Solubility ([4]; H2 O): insoluble
- fluorescence after irradiation (photostability) ([6]; 0.1 g in 250 ml CH3 OH and 10 ml CH2 Cl2, sun lamp, 8 days): no fluorescence was observed
Compound: CC1=CC(C)=[N+]2C1=C(C)c1c(C)cc(C)n1[B-]2(F)F [Compound 7a, 4,4-difluoro-1,3,5,7,8-pentamethyl-4-bora-3a,4a-diaza-s-indacene]
- wavelength of incident light that produced the greatest fluorescence [1]: 500-550 nm
- λf [2, 9]: 519 nm
- .PHI.f ([2]; Ref [2]): 0.99
- λmax [5]: 493 nm
- log ε [5]: 4.90
- visual change in fluorescence (photostability) ([6]; 0.1 g in 50 ml dichloromethane, sun lamp, 22 days): No visual change in fluorescence was observed

Compound: CC1=C(C)C(C)=[N+]2C1=C(C)c1c(C)c(C)c(C)n1[B-]2(F)F [Compound 7b]
- λf [2, 9]: 546 nm
- .PHI.f ([2]; Ref [2]): 0.70
- λmax [5]: 518 nm
- log ε [5]: 4.67

- solubility in the polymer matrix [7]: particularly soluble
Compound: CCC1=C(C)C2=C(C)c3c(C)c(CC)c(C)n3[B-](F)(F)[N+]2=C1C [Compound 7c, 1,3,5,7,8-pentamethyl-2,6-diethylpyrromethene-BF2 complex]
- λf [2, 9]: 546 nm
- .PHI.f ([2]; Ref [2]): 0.83
- λmax [5]: 517 nm
- log ε [5]: 4.81

Compound: CCN=c1cc2oc3cc(NCC)c(C)cc3c(-c3ccccc3C(=O)OCC)c-2cc1C [Compound R-6G, reference compound]
- fluorescence quantum yield of reference ([2]; reference standard): 0.90
- photostability in methanol [8]: 1500 pulses

- Eo after 1000 S at 25 J ([3]; footnote to Life, after 1000 S at 25 J): ~ 80 mJ
Compound: CCC1=C2C(C)=CC(C)=[N+]2[B-](F)(F)n2c(C)cc(C)c21 [III, 4,4-difluoro-1,3,5,7-tetramethyl-8-ethyl-4-bora-3a,4a-diaza-s-indacene]

Compound: CCN=c1cc2oc3cc(NCC)c(C)cc3c(-c3ccccc3C(=O)OCC)c-2cc1C [Rhodamine 590, reference compound]
- Life [3]: 15 kJ/L

Compound: c1ccc2cc3ccccc3cc2c1 [anthracene, reference compound]
- λf ([2]; literature): 400 nm
